Measured values as given in ChEMBL document CHEMBL3864179, “Development of 1H-Pyrazolo[3,4-b]pyridines as Metabotropic Glutamate Receptor 5 Positive Allosteric Modulators” (ACS Med Chem Lett, 2016).

Tests used:
[1] = Ratio of drug level in brain to plasma in C57Bl/6 mouse at 30 mg/kg, ip; format: ADME, organism-based; conditions: read-out: BPR
[2] = Plasma concentration in C57Bl/6 mouse at 30 mg/kg, ip measured after 60 mins; format: ADME, organism-based

- Kp [1]: 0.5
- concentration at 1 h [2]: 2800 nM
SMILES: N#Cc1c(-c2ccccc2)nc2[nH]nc(-c3ccc(Cl)c(C(F)(F)F)c3)c2c1C1CC1
